# According to patent EP0361954A2, “CRF Analogs” (THE SALK INSTITUTE FOR BIOLOGICAL STUDIES, priority 1988, dated 1990):
# Non-standard residues stand in square brackets, D forms with d. Nle = CCCC[C@H](N)C(=O)O
# How the values were obtained:
# [1] = In vivo testing (general procedure of C. Rivier et al., Science, 218, 377 (1982)): duration of potency and blood pressure; conditions: for lowering of blood pressure: general procedure of Example III
# Method: (§1) The synthetic peptide [D-Glu²⁰]-oCRF is examined for its effects on the secretion of ACTH and β-endorphin in vitro and was also in vivo. The potency of synthetic [D-Glu²⁰]-oCRF to stimulate the secretion of ACTH and β-endorphin by cultured rat pituitary cells is measured using the procedure as generally set forth in Endocrinology, 91, 562 (1972) and compared against synthetic oCRF. […] In vivo testing is carried out using the general procedure set forth in C.
# [2] = system: cultured rat pituitary cells; assay: Secretion of ACTH and β-endorphin by cultured rat pituitary cells (procedure of Endocrinology, 91, 562 (1972)); assay type: cell-based; conditions: for stimulation of the secretion of ACTH and β-END-LI: testing by the general procedure of Example III; for EC50: stimulation of secretion of ACTH and β-endorphin, cultured rat pituitary cells, read-out: Half-maximal responses (concentration of the peptide)
# Method: as §1
Molecule,lowering of blood pressure [1],stimulation of the secretion of ACTH and β-END-LI [2],further results
CC[C@H](C)[C@H](NC(=O)[C@@H](NC(=O)[C@H](CC(=O)O)NC(=O)[C@H](CC(C)C)NC(=O)[C@H](CC(C)C)NC(=O)[C@H](CC(C)C)NC(=O)[C@H](CCCNC(=N)N)NC(=O)[C@H](CC(N)=O)NC(=O)[C@H](CC(N)=O)NC(=O)[C@H](C)NC(=O)[C@H](C)NC(=O)[C@H](CCC(N)=O)NC(=O)[C@H](CCC(=O)O)NC(=O)[C@H](CCCCN)NC(=O)[C@H](CCC(=O)O)NC(=O)[C@H](CCCCN)NC(=O)[C@H](CCC(=O)O)NC(=O)[C@H](CCC(N)=O)NC(=O)[C@H](CCCCN)NC(=O)[C@H](CCCNC(=N)N)NC(=O)[C@H](C)NC(=O)[C@@H](CCC(=O)O)NC(=O)[C@@H](NC(=O)[C@H](CCSC)NC(=O)[C@H](CCCCN)NC(=O)[C@H](CCCNC(=N)N)NC(=O)[C@H](CC(C)C)NC(=O)[C@H](CC(C)C)NC(=O)[C@H](CCC(=O)O)NC(=O)[C@@H](Cc1ccccc1)NC(=O)[C@H](CO)NC(=O)[C@H](CC(C)C)NC(=O)[C@H](CC(=O)O)NC(=O)[C@@H](NC(=O)[C@H](CO)NC(=O)[C@@H](NC(=O)[C@@H]1CCCN1C(=O)[C@@H]1CCCN1C(=O)CNC(=O)[C@@H]1CCC(=O)N1)[C@@H](C)CC)[C@@H](C)CC)[C@@H](C)CC)[C@@H](C)CC)C(N)=O,very significant lowering of blood pressure,stimulates the secretion of ACTH and β-END-LI,–
"CCCC[C@H](NC(=O)[C@@H](CCC(=O)O)NC(=O)[C@H](CC(C)C)NC(=O)[C@@H](NC(=O)[C@H](CCC(=O)O)NC(=O)[C@H](CCCNC(=N)N)NC(=O)[C@H](CC(C)C)NC(=O)[C@H](CC(C)C)NC(=O)[C@H](Cc1c[nH]cn1)NC(=O)[C@H](Cc1ccccc1)NC(=O)[C@@H](NC(=O)[C@H](CC(C)C)NC(=O)[C@H](CC(=O)O)NC(=O)[C@H](CC(C)C)NC(=O)[C@H](CO)NC(=O)[C@@H](NC(=O)[C@@H]1CCCN1C(=O)[C@@H]1CCCN1C(=O)[C@H](CCC(=O)O)NC(=O)[C@H](CCC(N)=O)NC(=O)[C@@H](N)CO)[C@@H](C)CC)[C@@H](C)O)C(C)C)C(=O)N[C@H](C(=O)N[C@@H](CCCCN)C(=O)N[C@@H](C)C(=O)N[C@@H](CC(=O)O)C(=O)N[C@@H](CCC(N)=O)C(=O)N[C@@H](CC(C)C)C(=O)N[C@@H](C)C(=O)N[C@@H](CCC(N)=O)C(=O)N[C@@H](CCC(N)=O)C(=O)N[C@@H](C)C(=O)N[C@H](Cc1c[nH]cn1)C(=O)N[C@@H](CO)C(=O)N[C@@H](CC(N)=O)C(=O)N[C@@H](CCCNC(=N)N)C(=O)N[C@@H](CCCCN)C(=O)N[C@@H](CC(C)C)C(=O)N[C@@H](CC(C)C)C(=O)N[C@@H](CC(=O)O)C(=O)N[C@H](C(=O)N[C@@H](C)C(N)=O)[C@@H](C)CC)[C@@H](C)O [[D-Glu²⁰, Nle²¹, D-His³²]-oCRF]",very significant lowering of blood pressure,–,–
CC[C@H](C)[C@H](NC(=O)[C@H](CC(=O)O)NC(=O)[C@H](CC(C)C)NC(=O)[C@H](CC(C)C)NC(=O)[C@H](CCCCN)NC(=O)[C@H](CCCNC(=N)N)NC(=O)[C@H](CC(N)=O)NC(=O)[C@H](CO)NC(=O)[C@H](Cc1c[nH]cn1)NC(=O)[C@H](C)NC(=O)[C@H](CCC(N)=O)NC(=O)[C@H](CCC(N)=O)NC(=O)[C@H](C)NC(=O)[C@H](CC(C)C)NC(=O)[C@H](CCC(N)=O)NC(=O)[C@H](CC(=O)O)NC(=O)[C@H](C)NC(=O)[C@H](CCCCN)NC(=O)[C@@H](NC(=O)[C@H](CCSC)NC(=O)[C@@H](CCC(=O)O)NC(=O)[C@H](CC(C)C)NC(=O)[C@@H](NC(=O)[C@H](CCC(=O)O)NC(=O)[C@H](CCCNC(=N)N)NC(=O)[C@H](CC(C)C)NC(=O)[C@H](CC(C)C)NC(=O)[C@H](Cc1c[nH]cn1)NC(=O)[C@H](Cc1ccccc1)NC(=O)[C@@H](NC(=O)[C@H](CC(C)C)NC(=O)[C@H](CC(=O)O)NC(=O)[C@H](CC(C)C)NC(=O)[C@H](CO)NC(=O)[C@@H](NC(=O)[C@@H]1CCCN1C(=O)[C@@H]1CCCN1C(=O)[C@H](CCC(=O)O)NC(=O)[C@H](CCC(N)=O)NC(=O)[C@@H](N)CO)[C@@H](C)CC)[C@@H](C)O)C(C)C)[C@@H](C)O)C(=O)N[C@@H](C)C(N)=O [[D-Glu²⁰]-oCRF],significant lowering of blood pressure,–,"duration of potency [1]: longer duration of potency; potency compared with the native hormone ([2]; in vitro, compared against synthetic oCRF / native peptides): about twice as potent as the native hormone; secretory response to maximal concentrations ([2]; maximal (1-5 nM) concentrations): at a plateau level; EC50 [2]: ~0.17 nM"
"CC[C@H](C)[C@H](NC(=O)[C@H](CC(=O)O)NC(=O)[C@H](CC(C)C)NC(=O)[C@H](CC(C)C)NC(=O)[C@H](CCCCN)NC(=O)[C@H](CCCNC(=N)N)NC(=O)[C@H](CC(N)=O)NC(=O)[C@H](CO)NC(=O)[C@H](Cc1c[nH]cn1)NC(=O)[C@H](C)NC(=O)[C@H](CCC(N)=O)NC(=O)[C@H](CCC(N)=O)NC(=O)[C@H](C)NC(=O)[C@H](CC(C)C)NC(=O)[C@H](CCC(N)=O)NC(=O)[C@H](CC(=O)O)NC(=O)[C@H](C)NC(=O)[C@H](CCCCN)NC(=O)[C@@H](NC(=O)[C@H](CCSC)NC(=O)[C@H](CCC(=O)O)NC(=O)[C@H](CC(C)C)NC(=O)[C@@H](NC(=O)[C@H](CCC(=O)O)NC(=O)[C@H](CCCNC(=N)N)NC(=O)[C@H](CC(C)C)NC(=O)[C@H](CC(C)C)NC(=O)[C@H](Cc1c[nH]cn1)NC(=O)[C@H](Cc1ccccc1)NC(=O)[C@@H](NC(=O)[C@H](CC(C)C)NC(=O)[C@H](CC(=O)O)NC(=O)[C@H](CC(C)C)NC(=O)[C@H](CO)NC(=O)[C@@H](NC(=O)[C@@H]1CCCN1C(=O)[C@@H]1CCCN1C(=O)[C@H](CCC(=O)O)NC(=O)[C@H](CCC(N)=O)NC(=O)[C@@H](N)CO)[C@@H](C)CC)[C@@H](C)O)C(C)C)[C@@H](C)O)C(=O)N[C@@H](C)C(N)=O [oCRF, reference compound]",–,–,EC50 [2]: ~0.25 nM
Acr-Glu-Glu-Pro-Pro-Ile-Ser-Leu-Asp-Leu-Thr-D-Phe-His-Leu-Leu-Arg-Glu-Val-Leu-Glu-Nle-Ala-Arg-Ala-Glu-Gln-Leu-Ala-Gln-Gln-Ala-D-His-Ser-Asn-Arg-Lys-Leu-NIe-Glu-Ile-Ile-NH₂,very significant lowering of blood pressure,stimulates the secretion of ACTH and β-END-LI,–
For-Ser-GlU-GlU-Pro-Pro-Ile-Ser-Leu-Asp-Leu-Thr-D-Phe-His-Leu-Leu-Arg-Glu-Val-Leu-Glu-Nle-Ala-Arg-Ala-Glu-Gln-Leu-Ala-Gln-Gln-Ala-D-His-Ser-Asn-Arg-Lys-Leu-Nle-Glu-Ile-Ile-NH₂,very significant lowering of blood pressure,stimulates the secretion of ACTH and β-END-LI,–
"H-GlU-Pro-Pro-Ile-Ser-Leu-Asp-Leu-Thr-D-Phe-His-Leu-Leu-Arg-Glu-Val-Leu-D-GlU-Met-Ala-Arg-Ala-Glu-Gln-Leu-Ala-Gln-Gln-Ala-His-Ser-Asn-Arg-Lys-Leu-Met-Glu-Ile-Ile-NH₂ [[D-Phe¹², D-Glu²⁰]-rCRF(3-41)]",very significant lowering of blood pressure,stimulates the secretion of ACTH and β-END-LI,–
"H-SQEPPISLDLTFHLLREVL[dE][Nle]TK[dA]DQLAQQAHSNRKL[Nle]DIA-NH2 [[D-Glu²⁰, D-Ala²⁴, Nle^21,38]-oCRF]",very significant lowering of blood pressure,–,–
